Consider 2 compounds from patent US10800791B2, “Triazole ACC inhibitors and uses thereof” (Gilead Apollo, LLC, priority 2015, dated 2020).

pIC50: −log10 of the molar value. In brackets after ≈: the same amount, converted by molar mass. Like-named read-outs stand apart in the source and are kept apart here. Where only a bound is given, the exact number is not on record here.

One assay deals with Diplodia maydis (Dm). In words: Growth inhibition assay of fungal pathogens, Dm. In kind it is cell-based. The note with it: Stenocarpella maydis, 48 h. The method, then:
(§1) Compounds of the present invention were evaluated in a growth inhibition assay to determine the ability to control the growth of fungal pathogens, such as Botrtyis cinerea (Bc), Collectotrichum graminicola (Cg), Diplodia maydis (Dm), Fusarium moniliforme (Fm), Fusarium virguliforme (Fv), Phytophthora capsici (Pc), Rhizoctonia solani (Rs), and Septoria tritici (St).
(§2) Compounds to be tested were dissolved in DMSO at 2.5 mg/ml to produce compound stock solutions (“stocks”). Stocks were diluted with DMSO by a five-fold dilution in a 96-well stock plate, and two sets of final concentrations of 50, 10, and 2 ppm or 2, 0.4, and 0.08 ppm were obtained in vitro. A set of positive controls was also prepared, with various concentrations of Soraphen (2, 0.4, and 0.08 ppm), Metalaxyl (1.1, 0.22, and 0.04 ppm), and Metconazole (2, 0.4, and 0.08 ppm or 0.2, 0.04, and 0.008 ppm) after the five-fold dilutions. Negative controls on each plate included 2% DMSO, water, and a blank (media+2% DMSO).
(§3) Fungal spores were isolated from previously sub-cultured plates of Botrtyis cinerea (Bc), Collectotrichum graminicola (Cg), Diplodia maydis (Dm), Fusarium moniliforme (Fm), Fusarium virguliforme (Fv), Phytophthora capsici (Pc), and Septoria tritici (St). The isolated spores were diluted to individual concentrations with a 17% V8 liquid media. For Rhizoctonia solani (Rs) and Pythium irregulare, 1.5 mm mycelial plugs were used in place of spores and/4 Potato Dextrose Broth (PDB) was used for dilution. The spore concentrations and plug sizes were based on growth curves generated at 48 hours for each pathogen.
(§4) In a second 96-well plate, the spores or mycelial plugs, media, diluted compound solutions, and controls were combined. Once the compound was added, a true final concentration of compound in each well was measured by an OD600 reading, which adjusted for any compound precipitation that might have occurred in the well. Plate readings were repeated at both 24 and 48 hours. The blank negative control was used as a background subtraction. Additional visual ratings were performed at both 24 and 48 hours for checking on precipitation and confirming efficacy. Visual and OD600 ratings of the compounds at 48 hours were compared to the 2% DMSO negative control, and the percent of pathogen growth inhibition was determined based on those values.

The test system of a further assay is Botrtyis cinerea (Bc). In words: Growth inhibition assay of fungal pathogens, Bc. The note with it: 48 h. In kind it is cell-based. How it is done:
as §1, §2, §3, §4

The subject of the next assay is C. albicans. In words: Antifungal Activity Assay (broth microtiter MIC), C. albicans. In kind it is cell-based, Candida albicans. As to conditions: 3 replicates, MIC recorded at 48 h; for MIC: Candida albicans, ATCC90028, 48 h, ATCC 90028, read-out: MIC, C. albicans ATCC 90028. An outline of the steps:
(§5)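 Endpoint: lowest concentration visibly inhibiting growth relative to control after 48 h. Inoculum of 2.5×10^3 CFU/mL final in RPMI 1640+MOPS, prepared from overnight 35° C agar cultures; test compounds diluted in water to 128 μg/mL before plating.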

In another assay the target is human (hACC2) (Homo sapiens, UniProt O00763). In words: In vitro ACC inhibition assay (ADP-Glo), hACC2. Format: biochemical. The note with it: 5 nM ACC2, 20 μM ATP, 20 μM acetyl-CoA. How it is done:
The detailed procedure is as follows. […] 10 μL ADP glo reagent was added. […] 20 μL kinase detection reagent was added.
In general terms: ADP-Glo turns the ADP formed in a reaction into a luminescent signal.

Another assay has as its target fungal (fACC2) (UniProt Q00955). The note with it: read-out: fACC2 (in vitro ACC2 Inhibition Assay, IC50), ADP-Glo, 5 nM ACC2, 20 μM ATP, 20 μM acetyl-CoA.
The next assay has as its system C. krusei. As to the kind of experiment: Antifungal Activity Assay (broth microtiter MIC), C. krusei. Format: cell-based, Candida krusei. As to conditions: 3 replicates, MIC recorded at 48 h; for MIC: Pichia kudriavzevii, ATCC6258, 48 h, ATCC 6258, read-out: MIC, C. krusei ATCC 6258. In short, it runs like this:
as §5

The test system of assay [1] is Fusarium virguliforme (Fv). In words: Growth inhibition assay of fungal pathogens, Fv. As to conditions: 48 h. In kind it is cell-based. How it is done:
as §1, §2, §3, §4

For assay [2], the system named is Collectotrichum graminicola (Cg). In words: Growth inhibition assay of fungal pathogens, Cg. The note with it: 48 h. Format: cell-based. The method, then:
as §1, §2, §3, §4

The subject of another assay is Septoria tritici (St). As to the kind of experiment: Growth inhibition assay of fungal pathogens, St. In kind it is cell-based. As to conditions: Zymoseptoria tritici, 48 h. How it is done:
as §1, §2, §3, §4

The subject of assay [3] is Fusarium moniliforme (Fm). As to the kind of experiment: Growth inhibition assay of fungal pathogens, Fm. The note with it: for IC90: Fusarium verticillioides, 48 h, read-out: Concentration at 90% Inhibition Fm. Format: cell-based. The method, then:
as §1, §2, §3, §4

For a further assay, the system named is Rhizoctonia solani (Rs). In words: Growth inhibition assay of fungal pathogens, Rs. The note with it: 48 h. Format: cell-based.
The test system of a further assay is C. parapsilosis. In words: Antifungal Activity Assay (broth microtiter MIC), C. parapsilosis. Format: cell-based, Candida parapsilosis. The note with it: 3 replicates, MIC recorded at 48 h; for MIC: Lodderomyces parapsilosis, ATCC22019, 48 h, ATCC 22019, read-out: MIC, C. parapsilosis ATCC 22019. An outline of the steps:
as §5

Assay [4] has as its system Phytophthora capsici (Pc). In words: Growth inhibition assay of fungal pathogens, Pc. The note with it: 48 h. In kind it is cell-based. How it is done: as §1, §2, §3, §4

human (hACC2), sequence (O00763 whole entry): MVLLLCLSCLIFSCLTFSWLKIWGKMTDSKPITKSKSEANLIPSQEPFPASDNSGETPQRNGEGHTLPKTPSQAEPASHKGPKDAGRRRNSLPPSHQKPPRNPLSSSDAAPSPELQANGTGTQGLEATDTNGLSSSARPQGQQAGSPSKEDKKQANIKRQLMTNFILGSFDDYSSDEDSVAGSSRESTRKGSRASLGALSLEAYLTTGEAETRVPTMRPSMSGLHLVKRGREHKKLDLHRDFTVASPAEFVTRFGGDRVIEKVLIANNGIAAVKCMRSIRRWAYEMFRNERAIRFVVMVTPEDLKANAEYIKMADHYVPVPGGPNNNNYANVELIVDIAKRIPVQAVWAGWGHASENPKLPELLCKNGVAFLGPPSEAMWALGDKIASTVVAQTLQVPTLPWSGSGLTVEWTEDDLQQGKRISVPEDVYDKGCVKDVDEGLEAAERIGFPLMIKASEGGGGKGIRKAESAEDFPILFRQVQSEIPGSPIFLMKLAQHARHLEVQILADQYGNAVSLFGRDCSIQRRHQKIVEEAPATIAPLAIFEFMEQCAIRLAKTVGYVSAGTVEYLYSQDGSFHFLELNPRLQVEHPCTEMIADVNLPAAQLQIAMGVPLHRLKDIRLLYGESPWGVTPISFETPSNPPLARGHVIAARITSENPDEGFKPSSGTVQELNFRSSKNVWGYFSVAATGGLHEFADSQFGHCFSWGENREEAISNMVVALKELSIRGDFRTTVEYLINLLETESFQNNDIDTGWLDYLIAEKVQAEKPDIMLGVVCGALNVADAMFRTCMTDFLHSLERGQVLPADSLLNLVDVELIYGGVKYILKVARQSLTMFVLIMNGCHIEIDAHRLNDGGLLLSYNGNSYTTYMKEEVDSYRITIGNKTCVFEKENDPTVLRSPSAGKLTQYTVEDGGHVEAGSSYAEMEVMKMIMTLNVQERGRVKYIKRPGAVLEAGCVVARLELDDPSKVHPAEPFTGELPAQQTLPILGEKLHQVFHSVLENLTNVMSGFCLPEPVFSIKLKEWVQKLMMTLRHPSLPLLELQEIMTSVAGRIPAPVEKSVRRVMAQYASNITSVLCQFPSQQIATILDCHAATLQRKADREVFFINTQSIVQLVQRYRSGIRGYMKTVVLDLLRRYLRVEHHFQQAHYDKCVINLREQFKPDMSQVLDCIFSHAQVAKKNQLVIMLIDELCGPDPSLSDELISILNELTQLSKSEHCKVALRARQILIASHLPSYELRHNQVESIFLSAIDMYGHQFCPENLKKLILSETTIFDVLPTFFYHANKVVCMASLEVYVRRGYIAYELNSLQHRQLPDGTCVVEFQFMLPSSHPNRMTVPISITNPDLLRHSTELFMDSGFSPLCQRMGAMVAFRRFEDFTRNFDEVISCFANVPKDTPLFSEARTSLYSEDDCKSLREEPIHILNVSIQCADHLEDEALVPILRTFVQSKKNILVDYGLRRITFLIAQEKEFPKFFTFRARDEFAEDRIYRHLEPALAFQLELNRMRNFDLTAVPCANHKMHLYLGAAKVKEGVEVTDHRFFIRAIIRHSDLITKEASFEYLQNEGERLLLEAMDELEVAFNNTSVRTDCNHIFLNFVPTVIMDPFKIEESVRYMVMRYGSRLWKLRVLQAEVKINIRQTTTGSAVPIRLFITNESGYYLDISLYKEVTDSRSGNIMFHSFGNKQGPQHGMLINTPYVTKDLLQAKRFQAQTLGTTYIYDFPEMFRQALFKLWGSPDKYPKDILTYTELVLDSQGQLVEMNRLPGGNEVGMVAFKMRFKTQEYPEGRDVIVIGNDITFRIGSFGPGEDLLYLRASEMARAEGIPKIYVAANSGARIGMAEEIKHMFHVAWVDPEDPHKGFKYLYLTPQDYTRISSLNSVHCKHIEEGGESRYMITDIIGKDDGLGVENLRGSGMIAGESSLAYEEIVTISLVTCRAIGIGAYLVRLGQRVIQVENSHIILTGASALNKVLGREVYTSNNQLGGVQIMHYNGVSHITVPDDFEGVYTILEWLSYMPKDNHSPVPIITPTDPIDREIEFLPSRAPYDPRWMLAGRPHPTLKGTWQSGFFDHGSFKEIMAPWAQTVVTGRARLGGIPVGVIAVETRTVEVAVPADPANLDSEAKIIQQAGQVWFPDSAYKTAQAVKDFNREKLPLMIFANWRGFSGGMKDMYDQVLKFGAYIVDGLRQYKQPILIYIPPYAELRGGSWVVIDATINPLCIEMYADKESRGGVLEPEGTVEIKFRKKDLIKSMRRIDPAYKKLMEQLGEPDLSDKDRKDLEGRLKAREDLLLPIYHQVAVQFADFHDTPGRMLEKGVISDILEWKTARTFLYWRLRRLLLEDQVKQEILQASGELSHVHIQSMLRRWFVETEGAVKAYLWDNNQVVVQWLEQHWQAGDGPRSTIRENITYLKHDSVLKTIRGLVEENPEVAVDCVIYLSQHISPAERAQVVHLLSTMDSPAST
fungal (fACC2), sequence (Q00955 whole entry): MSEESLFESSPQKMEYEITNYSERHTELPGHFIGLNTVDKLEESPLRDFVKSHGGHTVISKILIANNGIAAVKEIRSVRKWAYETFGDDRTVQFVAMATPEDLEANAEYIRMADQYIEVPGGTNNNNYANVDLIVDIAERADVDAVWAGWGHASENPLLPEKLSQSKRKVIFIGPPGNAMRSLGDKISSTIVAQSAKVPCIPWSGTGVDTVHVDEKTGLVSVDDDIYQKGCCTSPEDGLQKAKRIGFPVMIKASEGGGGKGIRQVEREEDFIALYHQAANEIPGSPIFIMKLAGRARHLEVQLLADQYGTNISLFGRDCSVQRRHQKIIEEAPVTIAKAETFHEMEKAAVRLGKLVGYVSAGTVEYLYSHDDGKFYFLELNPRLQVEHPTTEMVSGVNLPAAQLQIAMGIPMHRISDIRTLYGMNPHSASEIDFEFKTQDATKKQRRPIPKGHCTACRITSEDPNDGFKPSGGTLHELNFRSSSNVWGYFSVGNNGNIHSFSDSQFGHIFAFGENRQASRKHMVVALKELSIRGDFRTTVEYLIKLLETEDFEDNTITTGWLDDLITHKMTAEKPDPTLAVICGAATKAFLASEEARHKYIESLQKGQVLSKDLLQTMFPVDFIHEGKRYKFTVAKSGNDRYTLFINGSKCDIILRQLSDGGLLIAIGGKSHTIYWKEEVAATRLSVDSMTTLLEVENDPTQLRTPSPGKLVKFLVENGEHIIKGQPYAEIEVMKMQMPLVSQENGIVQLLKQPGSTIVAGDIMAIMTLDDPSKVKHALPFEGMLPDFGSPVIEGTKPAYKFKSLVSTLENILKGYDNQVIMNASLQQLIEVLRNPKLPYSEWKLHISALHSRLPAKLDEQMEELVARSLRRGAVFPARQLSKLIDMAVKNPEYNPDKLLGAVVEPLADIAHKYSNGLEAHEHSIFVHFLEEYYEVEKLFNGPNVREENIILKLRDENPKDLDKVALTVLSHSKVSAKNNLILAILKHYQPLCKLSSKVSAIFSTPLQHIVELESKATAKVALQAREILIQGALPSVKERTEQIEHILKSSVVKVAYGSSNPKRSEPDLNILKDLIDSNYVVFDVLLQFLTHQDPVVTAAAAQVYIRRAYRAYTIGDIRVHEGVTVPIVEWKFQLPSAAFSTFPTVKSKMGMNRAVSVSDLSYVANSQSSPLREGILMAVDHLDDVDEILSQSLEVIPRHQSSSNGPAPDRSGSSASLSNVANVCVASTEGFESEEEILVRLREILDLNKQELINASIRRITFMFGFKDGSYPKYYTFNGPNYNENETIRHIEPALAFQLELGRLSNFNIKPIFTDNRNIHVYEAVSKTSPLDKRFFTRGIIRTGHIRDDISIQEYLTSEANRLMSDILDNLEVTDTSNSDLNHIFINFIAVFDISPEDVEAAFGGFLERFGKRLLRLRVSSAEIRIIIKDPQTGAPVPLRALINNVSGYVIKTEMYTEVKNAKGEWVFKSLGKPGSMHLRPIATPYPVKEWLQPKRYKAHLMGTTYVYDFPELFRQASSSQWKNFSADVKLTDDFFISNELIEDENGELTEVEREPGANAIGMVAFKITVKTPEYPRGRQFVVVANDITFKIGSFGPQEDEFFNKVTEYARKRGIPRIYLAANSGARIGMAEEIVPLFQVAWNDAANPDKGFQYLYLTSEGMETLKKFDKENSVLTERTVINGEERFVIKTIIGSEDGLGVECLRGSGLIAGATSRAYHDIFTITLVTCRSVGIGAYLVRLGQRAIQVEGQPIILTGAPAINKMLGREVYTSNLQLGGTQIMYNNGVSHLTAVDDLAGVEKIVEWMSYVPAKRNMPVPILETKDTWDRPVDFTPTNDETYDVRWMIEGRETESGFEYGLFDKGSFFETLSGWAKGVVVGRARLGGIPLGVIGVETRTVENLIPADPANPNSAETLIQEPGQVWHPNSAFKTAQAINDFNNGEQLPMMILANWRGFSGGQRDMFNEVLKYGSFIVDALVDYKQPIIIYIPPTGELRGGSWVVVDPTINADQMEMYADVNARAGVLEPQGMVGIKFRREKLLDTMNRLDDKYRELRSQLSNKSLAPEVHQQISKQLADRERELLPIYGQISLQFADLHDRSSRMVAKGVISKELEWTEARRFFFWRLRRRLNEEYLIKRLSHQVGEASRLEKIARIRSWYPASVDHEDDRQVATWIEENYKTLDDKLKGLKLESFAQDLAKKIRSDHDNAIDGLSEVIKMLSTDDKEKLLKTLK
Experimental for fungal (fACC2): An exemplary procedure for the in vitro ACC inhibition assay, which can be used to determine the inhibitory action of compounds of the invention toward either human (hACC2) or fungal (fACC2), follows. The ADP-Glo™ Kinase Assay kit from Promega was used. The ADP-Glo™ Kinase Assay is a luminescent ADP detection assay to measure enzymatic activity by quantifying the amount of ADP produced during an enzyme reaction. The assay is performed in two steps; first, after the enzyme reaction, an equal volume of ADP-Glo™ Reagent is added to terminate the reaction and deplete the remaining ATP. Second, the Kinase Detection Reagent is added to simultaneously convert ADP to ATP and allow the newly synthesized ATP to be measured using a luciferase/luciferin reaction. Luminescence can be correlated to ADP concentrations by using an ATP-to-ADP conversion curve. […] 50 μL of the compound being tested (600 μM in DMSO) was added to a 384-well dilution plate. The compound was diluted 1:3 in succession in DMSO for each row for 11 wells. 0.5 μL ACC2 working solution was added to 384-well white Optiplate assay plate. 0.5 μL diluted compound solution in each column from step 2 was added to assay plate, each row containing 2 replicates. […] The plates were incubated at room temperature for 15 minutes. 5 μL substrate working solution was added to each well to initiate reaction. Final ACC2 reaction concentrations consist of: 5 nM ACC2, 20 μM ATP, 20 μM acetyl-CoA, 12 mM NaHCO3, 0.01% Brij35, 2 mM DTT, 5% DMSO, test compound concentrations: 30 μM, 10 μM, 3.33 μM, 1.11 μM, 0.37 μM, 0.123 μM, 0.0411 μM, 0.0137 μM, 0.00457 μM, 0.00152 μM, and 0.00051 μM. Plates were incubated at room temperature for 60 minutes. 10 μL ADP glo reagent was added. Plates were incubated at room temperature for 40 minutes. 20 μL kinase detection reagent was added. Plates were incubated at room temperature for 40 minutes, and then read on a Perkin Elmer EnVision 2104 plate reader for luminescence as Relative Light Units (RLU).
Data for each concentration, as well as the positive and negative controls were averaged, and the standard deviation calculated. Percent inhibition was calculated by the formula: 100×(average negative control−compound)/(average negative control−average positive control). The IC50 for each compound was calculated by fitting the data with a non-linear regression equation: Y=Bottom+(Top−Bottom)/(1+10 ((Log IC50−X)*HillSlope)), where X is the log of compound concentration and Y is percent inhibition.

Turning to `COCCO[C@@H](Cn1c(=O)n([C@@H](C)C(=O)NC(C)C)c(=O)c2c(C)c(-n3nccn3)sc21)c1cc(F)ccc1OC` [Compound I-66, (S)-2-(1-((R)-2-(5-fluoro-2-methoxyphenyl)-2-(2-methoxy-ethoxy)ethyl)-5-methyl-2,4-dioxo-6-(2H-1,2,3-triazol-2-yl)-1,4-dihydrothieno[2,3-d]pyrimidin-3(2H)-yl)-N-isopropylpropanamide], the IC90 is 0.4 µg/mL (≈ 0.68 µM) in the assay on Diplodia maydis (Dm) (read-out: Concentration at 90% Inhibition Dm, Diplodia maydis, growth inhibition at 48 hours vs 2% DMSO control); 0.4 µg/mL (≈ 0.68 µM) with Diplodia maydis (Dm) (read-out: Concentration at 90% Inhibition Dm, Diplodia maydis, growth inhibition vs 2% DMSO control at 48 hours); 2 µg/mL (≈ 3.4 µM) in the assay on Botrtyis cinerea (Bc) (read-out: Concentration at 90% Inhibition Bc, Botrtyis cinerea, growth inhibition at 48 hours vs 2% DMSO control); 2 µg/mL (≈ 3.4 µM) in the assay on Botrtyis cinerea (Bc) (read-out: Concentration at 90% Inhibition Bc, Botrtyis cinerea, growth inhibition vs 2% DMSO control at 48 hours); 0.4 µg/mL (≈ 0.68 µM) in [1] (read-out: Concentration at 90% Inhibition Fv, Fusarium virguliforme, growth inhibition at 48 hours vs 2% DMSO control); 0.4 µg/mL (≈ 0.68 µM) in assay [1] (read-out: Concentration at 90% Inhibition Fv, Fusarium virguliforme, growth inhibition vs 2% DMSO control at 48 hours). For the same compound, the IC90 was 0.4 µg/mL (≈ 0.68 µM) in [2] (read-out: Concentration at 90% Inhibition Cg, Collectotrichum graminicola, growth inhibition at 48 hours vs 2% DMSO control); 0.4 µg/mL (≈ 0.68 µM) in [2] (read-out: Concentration at 90% Inhibition Cg, Collectotrichum graminicola, growth inhibition vs 2% DMSO control at 48 hours); above 50 µg/mL in the assay with Septoria tritici (St) (read-out: Concentration at 90% Inhibition St, Septoria tritici, growth inhibition at 48 hours vs 2% DMSO control); above 50 µg/mL in the assay on Septoria tritici (St) (read-out: Concentration at 90% Inhibition St, Septoria tritici, growth inhibition vs 2% DMSO control at 48 hours); 0.08 µg/mL (≈ 0.136 µM) in assay [3]; 0.4 µg/mL (≈ 0.68 µM) in the assay with Rhizoctonia solani (Rs) (read-out: Concentration at 90% Inhibition Rs, Rhizoctonia solani, mycelial plugs, growth inhibition at 48 hours vs 2% DMSO control). Also, the IC90 in the assay on Rhizoctonia solani (Rs) (read-out: Concentration at 90% Inhibition Rs, Rhizoctonia solani, mycelial plugs, growth inhibition vs 2% DMSO control at 48 hours) is 0.08 µg/mL (≈ 0.136 µM); in assay [4] (read-out: Concentration at 90% Inhibition Pc, Phytophthora capsici, growth inhibition at 48 hours vs 2% DMSO control), 10 µg/mL (≈ 17 µM); in assay [4] (read-out: Concentration at 90% Inhibition Pc, Phytophthora capsici, growth inhibition vs 2% DMSO control at 48 hours), above 50 µg/mL. For the same compound, the “MIC, C. albicans ATCC 90028” value is “C (MIC of 2.1-4.0 μg/mL)” in the assay with C. albicans (Table 3a) and “D (MIC of >4.01 μg/mL)” in the assay on C. albicans (Table 3b (additional results)). Further, the pIC50 is 8.00 to 8.30 against human (hACC2) (Table 2a); 8.00 to 8.30 at human (hACC2) (Table 2b, additional results); 8.30 to 9.00 at fungal (fACC2) (Table 2a); 8.30 to 9.00 on fungal (fACC2) (Table 2b, additional results). The results for the “MIC, C. krusei ATCC 6258” value against C. krusei (Table 3a) and in the assay on C. krusei (Table 3b (additional results)) were “B (MIC of 1.1-2.0 μg/mL)” and “C (MIC of 2.01-4.0 μg/mL)”, respectively. The “Concentration at 90% Inhibition Fm” value in assay [3] (Fusarium moniliforme, growth inhibition at 48 hours vs 2% DMSO control) is “AA (compound concentration of 0.08 ppm at 90% inhibition of fungal pathogens)”. The “MIC, C. parapsilosis ATCC 22019” value in the assay on C. parapsilosis (Table 3a) was “B (MIC of 1.1-2.0 μg/mL)”; in the assay on C. parapsilosis (Table 3b (additional results)), “B (MIC of 1.01-2.0 μg/mL)”.

Turning to `COCCO[C@@H](Cn1c(=O)n([C@H](C)C(=O)NC(C)C)c(=O)c2c(C)c(-n3nccn3)sc21)c1cc(F)ccc1OC` [Compound I-67, (R)-2-(1-((R)-2-(5-fluoro-2-methoxyphenyl)-2-(2-methoxy-ethoxy)ethyl)-5-methyl-2,4-dioxo-6-(2H-1,2,3-triazol-2-yl)-1,4-dihydrothieno[2,3-d]pyrimidin-3(2H)-yl)-N-isopropylpropanamide], the IC90 with Diplodia maydis (Dm) (Diplodia maydis, growth inhibition vs 2% DMSO control at 48 hours, read-out: Concentration at 90% Inhibition Dm) came to 0.08 µg/mL (≈ 0.136 µM); in the assay on Botrtyis cinerea (Bc) (Botrtyis cinerea, growth inhibition vs 2% DMSO control at 48 hours, read-out: Concentration at 90% Inhibition Bc) it was 0.08 µg/mL (≈ 0.136 µM); in [1] (growth inhibition vs 2% DMSO control at 48 hours, read-out: Concentration at 90% Inhibition Fv), 0.4 µg/mL (≈ 0.68 µM); in assay [2] (Collectotrichum graminicola, growth inhibition vs 2% DMSO control at 48 hours, read-out: Concentration at 90% Inhibition Cg), 0.08 µg/mL (≈ 0.136 µM); with Septoria tritici (St) (Septoria tritici, growth inhibition vs 2% DMSO control at 48 hours, read-out: Concentration at 90% Inhibition St) it was 10 µg/mL (≈ 17 µM); in assay [3] (Fusarium moniliforme, growth inhibition vs 2% DMSO control at 48 hours), 0.08 µg/mL (≈ 0.136 µM). For the same compound, the IC90 is 0.08 µg/mL (≈ 0.136 µM) in the assay on Rhizoctonia solani (Rs) (mycelial plugs, growth inhibition vs 2% DMSO control at 48 hours, read-out: Concentration at 90% Inhibition Rs) and above 50 µg/mL in [4] (growth inhibition vs 2% DMSO control at 48 hours, read-out: Concentration at 90% Inhibition Pc). For the same compound, the minimum inhibitory concentration (MIC) is 1.1 to 2 µg/mL (≈ 1.87 to 3.4 µM) with C. albicans (Table 3a); above 4.01 µg/mL with C. albicans (Table 3b (additional results)); 0.25 to 1 µg/mL (≈ 0.425 to 1.7 µM) with C. krusei (Table 3a); 2.01 to 4 µg/mL (≈ 3.41 to 6.8 µM) with C. krusei (Table 3b (additional results)); 1.1 to 2 µg/mL (≈ 1.87 to 3.4 µM) in the assay with C. parapsilosis (Table 3a); 1.01 to 2 µg/mL (≈ 1.72 to 3.4 µM) with C. parapsilosis (Table 3b (additional results)). The pIC50 is 8.00 to 8.30 on human (hACC2) (Table 2a); 8.00 to 8.30 on human (hACC2) (Table 2b, additional results); 8.30 to 9.00 at fungal (fACC2) (Table 2a); 8.30 to 9.00 at fungal (fACC2) (Table 2b, additional results).

Usually pIC50 stands for the IC50 on a negative log10 scale, so that one unit is a factor of ten. By MIC is commonly meant the lowest concentration that inhibits growth of the organism.
